The values that follow come from patent US20170079281A1, “CITRUS-BASED ANTIMICROBIAL COMPOSITION” (priority 2015, published 2017).

Structures are written as SMILES.

One series has as its system Escherichia coli EDL 933. The series is described as follows: MIC by broth dilution method in 96-well microplates. Format: cell-based. The note with it: Mueller Hinton Broth, 24 h. For orientation: In broth dilution the organism is exposed to a series of concentrations in liquid medium.
The subject of series [1] is Salmonella typhimurium SL1344. Described as above. Format: cell-based. The following applies: Mueller Hinton Broth, 24 h.
In series [2] the test system is Listeria monocytogenes HPB 2812. The series is described as above. Format: cell-based. The note with it: Mueller Hinton Broth, 24 h.
The subject of series [3] is Staphylococcus aureus ATCC 25923. The description is as above. Format: cell-based. The following applies: Mueller Hinton Broth, 24 h.
For another series, the system named is Bacillus cereus L8PQ. The series is described as above. The note with it: Mueller Hinton Broth, 24 h. Format: cell-based.
The test system of series [4] is Aspergillus niger ATCC 1015. The description is as above. Format: cell-based. The following applies: Mueller Hinton Broth, 24 h.
For series [5], the system named is Xeromyces bisporus ATCC MY-36964. The description is as above. The following applies: Mueller Hinton Broth, 24 h. Format: cell-based.
Series [6] has as its system Zygosaccharomyces rouxii ATCC R 995. The description is as above. Format: cell-based. The note with it: Mueller Hinton Broth, 24 h.
The subject of series [7] is total aerobic microflora (TAM). As to the kind of experiment: Accelerated shelf-life testing of strawberry fillings and puddings. Format: cell-based. The note with it: 0.2% by mass Composition A or 0.1% by mass sodium benzoate; 28° C., 70% RH, 35 days (Month 1 to Month 15). The method, then:
(§1) The shelf-life of the strawberry fillings and strawberry flavor puddings, containing 0.2% by mass Composition A or 0.1% by mass sodium benzoate, […], from a procedure by Kilcast and Persis (2000) by determining the concentration of total aerobic microflora (TAM) and yeast/molds (YM). […]; Sheldon Manufacturing Inc., Cornelius, Oreg., USA), in order to simulate an accelerated maturity of the products. A storage time of 2 weeks in these conditions corresponds to 6 months in normal conditions (20° C., 45% RH). […] Samples were homogenized for 2 min at 260 rpm in 50 mL of sterile peptone water (0.1% w/v) with a Lab-Blender™ 400 stomacher (Laboratory Equipment, London, UK). From each homogenate, serial dilutions were prepared, plated onto surface of Plate Count Agar (PCA) (Difco, BD) for TAM enumeration or PDA for YM enumeration and incubated for 24-48 h at 37° C. (resp. 28° C.) before counting.

Another series has as its system yeast/molds (YM). The series is described as above. Format: cell-based. The method, then: as §1
The next series deals with S. cerevisiae ISI107. The series is described as follows: MIC microtiter plate assay in filtered apple juice. Format: cell-based, Saccharomyces cerevisiae. The note with it: filtered apple juice (pH 3.59), 25° C., aerobically.
The conditions of series [8]: has been reported; cited from earlier work.

Turning to `O=C([O-])c1ccccc1.[Na+]` [Sodium benzoate, sodium benzoate], the MIC against Escherichia coli EDL 933 is 10 730 ppm; in [1], 5 185 ppm; in series [2], 5 185 ppm; in [3] it was 5 185 ppm; with Bacillus cereus L8PQ, 5 185 ppm; in [4], 648 ppm. The MIC in series [5] amounted to 81 ppm; in [6] it was 162 ppm. In series [7], the “TAM concentration in strawberry fillings” value is “total inhibition”. In addition, the “Yeast/Mold (Y/M) concentration in strawberry flavor puddings” value in the series on yeast/molds (YM) (0.2% Composition A or 0.1% sodium benzoate, after 35 days accelerated storage, also no growth in control, data not shown) is given as “no growth”. In the series on yeast/molds (YM) (0.2% by mass Composition A or 0.1% by mass sodium benzoate, 28° C., 70% RH, 35 days (Month 1 to Month 15)), the “Yeast/Mold (Y/M) concentration in strawberry fillings” value is recorded as “total inhibition”.
As to `CCCCCCCCCCCC(=O)N[C@@H](CCCN=C(N)N)C(=O)OCC` [lauric arginate, ethyl lauroyl arginate], the MIC result in the series on S. cerevisiae ISI107 is reported as “about 156 ppm”. The “Resistance to thermal processing” value in [8] was “resistant to all types of thermal processing including boiling”.
